Experiments:
GALAP (Galium) = test: Postemergence herbicidal evaluation; format: in vivo, Galium aparine
How it was run: (§1)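 Seedlings grown about two weeks were sprayed at 40 psi with compound dispersed in 50/50 acetone/water plus 0.5% TWEEN 20, at about 0.0156 to 0.500 kg/ha. Plants were kept in the greenhouse and scored 4–5 weeks later on a 0–9 visual scale against untreated controls.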

[1] = tested on: SAGPY (Arrowhead (Pygmaea)); test: Preemergence weed control under flooded paddy conditions; format: in vivo, Sagittaria pygmaea; conditions: rated 3-4 weeks after treatment
How it was run: (§2)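 Flooded-pot preemergence screen with silt loam and seeds in the upper 0.5 cm. Dose about 0.0313 to 0.500 kg/ha, delivered into flood water; visual 0-9 score after 3 to 4 weeks.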

[2] = tested on: IPOHE (Morningglory, Ivyleaf); test: Preemergence herbicidal evaluation; format: in vivo, Ipomoea hederacea; conditions: rated 4-5 weeks after treatment
How it was run: (§3)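 Test compound, dissolved in aqueous acetone, was sprayed over planted soil cups at an equivalent of about 0.0156 to 0.500 kg/ha; seeds had been mixed with potting soil. Greenhouse growth followed, with visual 0-9 scoring of injury at four to five weeks.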

[3] = tested on: GLXMAW (Soybean, Williams); test: Preemergence herbicidal evaluation; format: in vivo, Glycine max, (L.) Merr. cv Williams; conditions: rated 4-5 weeks after treatment
How it was run: as §3

CYPIR (Rice Flatsedge) = test: Postemergence weed control under flooded paddy conditions; format: in vivo, Cyperus iria; conditions: postemergence weeds, rated 3 to 4 weeks after treatment
How it was run: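 Injury ratings (0–9 scale covering stand, vigor, malformation, size, chlorosis and overall appearance versus control) were made three to four weeks after treatment. Test material, about 0.0313 to 0.500 kg/ha a.i. in 50/50 v/v aqueous/acetone, was added to flood water 1.5 to 3 cm deep over 3 to 5 cm weeds and 1.5 to 2.5 leaf rice.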

[4] = tested on: IPOHE (Morningglory, Ivyleaf); test: Postemergence herbicidal evaluation; format: in vivo, Ipomoea hederacea
How it was run: as §1

ABUTH (Velvetleaf) = test: Preemergence herbicidal evaluation; format: in vivo, Abutilon theophrasti; conditions: rated 4-5 weeks after treatment
How it was run: as §3

MOOVA (Monochoria) = test: Preemergence weed control under flooded paddy conditions; format: in vivo, Monochoria vaginalis; conditions: rated 3-4 weeks after treatment
How it was run: as §2

ZEAMX (Corn, Field) = test: Preemergence herbicidal evaluation; format: in vivo, Zea mays; conditions: rated 4-5 weeks after treatment
How it was run: as §3

CASOB (Sicklepod) [5] = test: Preemergence herbicidal evaluation; format: in vivo, Cassia obtusifolia; conditions: rated 4-5 weeks after treatment
How it was run: as §3

[6] = tested on: TRZAWR (Wheat, Winter, cv Riband); test: Preemergence herbicidal evaluation; format: in vivo, Triticum aestivum; conditions: rated 4-5 weeks after treatment
How it was run: as §3

CASOB (Sicklepod) [7] = test: Postemergence herbicidal evaluation; format: in vivo, Cassia obtusifolia
How it was run: as §1

AMBEL (Ragweed, Common) = test: Postemergence herbicidal evaluation; format: in vivo, Ambrosia artemisifolia
How it was run: as §1

ECHCG (Barnyardgrass) = test: Preemergence herbicidal evaluation; format: in vivo, Echinochloa crus-galli; conditions: rated 4-5 weeks after treatment
How it was run: as §3

For C=CCN1C(=O)C(CC(=O)O)SC1=Nc1cc(-n2c(=O)cc(C(F)(F)F)n(C)c2=O)c(F)cc1Cl (stereo not shown) [Compound 62, 3-Allyl-2-{{2-chloro-5-[3,6-dihydro-3-methyl-2,6-dioxo-4-(trifluoromethyl)-1(2H)-pyrimidinyl]-4-fluorophenyl}imino}-4-oxo-5-thiazolidineacetic acid], the “Postemergence herbicidal rating GALAP” value (GALAP (Galium); Rate 0.0158 kg/ha) was 1.0, the “Postemergence herbicidal rating GALAP” value (GALAP (Galium); Rate 0.0315 kg/ha) was 5.0 and the “Postemergence herbicidal rating GALAP” value (GALAP (Galium); Rate 0.0630 kg/ha) was 5.0. The “SAGPY herbicidal effect rating” value ([1]; 0.0313 kg/ha) was 0.0, the “SAGPY herbicidal effect rating” value ([1]; 0.0625 kg/ha) was 0.0 and the “SAGPY herbicidal effect rating” value ([1]; 0.1250 kg/ha) was 3.0. For the same compound, the “SAGPY herbicidal effect rating” value ([1]; 0.2500 kg/ha) was 6.0, the “Preemergence herbicidal rating IPOHE” value ([2]; rate 0.0156 kg/ha) was 0.0 and the “Preemergence herbicidal rating IPOHE” value ([2]; rate 0.0313 kg/ha) was 3.0. For the same compound, the “Preemergence herbicidal rating IPOHE” value ([2]; rate 0.0625 kg/ha) was 5.0, the “Preemergence herbicidal rating IPOHE” value ([2]; rate 0.1250 kg/ha) was 7.0 and the “Preemergence herbicidal rating IPOHE” value ([2]; rate 0.2500 kg/ha) was 9.0. For the same compound, the “Preemergence herbicidal rating GLXMAW” value ([3]; rate 0.0156 kg/ha) was 0.0, the “Preemergence herbicidal rating GLXMAW” value ([3]; rate 0.0313 kg/ha) was 0.0 and the “Preemergence herbicidal rating GLXMAW” value ([3]; rate 0.0625 kg/ha) was 1.0. The “Preemergence herbicidal rating GLXMAW” value ([3]; rate 0.1250 kg/ha) was 2.0, the “Preemergence herbicidal rating GLXMAW” value ([3]; rate 0.2500 kg/ha) was 7.0 and the “Herbicidal rating CYPIR” value (CYPIR (Rice Flatsedge); Rate 0.0313 kg/ha) was 0.0. The “Herbicidal rating CYPIR” value (CYPIR (Rice Flatsedge); Rate 0.0625 kg/ha) was 2.0, the “Herbicidal rating CYPIR” value (CYPIR (Rice Flatsedge); Rate 0.1250 kg/ha) was 9.0 and the “Herbicidal rating CYPIR” value (CYPIR (Rice Flatsedge); Rate 0.2500 kg/ha) was 9.0. The “Postemergence herbicidal rating IPOHE” value ([4]; Rate 0.0158 kg/ha) was 9.0, the “Postemergence herbicidal rating IPOHE” value ([4]; Rate 0.0315 kg/ha) was 9.0 and the “Postemergence herbicidal rating IPOHE” value ([4]; Rate 0.0630 kg/ha) was 9.0. The “Preemergence herbicidal rating ABUTH” value (ABUTH (Velvetleaf); rate 0.0156 kg/ha) was 4.0, the “Preemergence herbicidal rating ABUTH” value (ABUTH (Velvetleaf); rate 0.0313 kg/ha) was 7.0 and the “Preemergence herbicidal rating ABUTH” value (ABUTH (Velvetleaf); rate 0.0625 kg/ha) was 9.0. For the same compound, the “Preemergence herbicidal rating ABUTH” value (ABUTH (Velvetleaf); rate 0.1250 kg/ha) was 9.0, the “Preemergence herbicidal rating ABUTH” value (ABUTH (Velvetleaf); rate 0.2500 kg/ha) was 9.0 and the “MOOVA herbicidal effect rating” value (MOOVA (Monochoria); 0.0313 kg/ha) was 4.0. For the same compound, the “MOOVA herbicidal effect rating” value (MOOVA (Monochoria); 0.0625 kg/ha) was 9.0, the “MOOVA herbicidal effect rating” value (MOOVA (Monochoria); 0.1250 kg/ha) was 9.0 and the “MOOVA herbicidal effect rating” value (MOOVA (Monochoria); 0.2500 kg/ha) was 9.0. The “Preemergence herbicidal rating ZEAMX” value (ZEAMX (Corn, Field); rate 0.0156 kg/ha) was 0.0, the “Preemergence herbicidal rating ZEAMX” value (ZEAMX (Corn, Field); rate 0.0313 kg/ha) was 1.0 and the “Preemergence herbicidal rating ZEAMX” value (ZEAMX (Corn, Field); rate 0.0625 kg/ha) was 1.0. For the same compound, the “Preemergence herbicidal rating ZEAMX” value (ZEAMX (Corn, Field); rate 0.1250 kg/ha) was 3.0, the “Preemergence herbicidal rating ZEAMX” value (ZEAMX (Corn, Field); rate 0.2500 kg/ha) was 7.0 and the “Preemergence herbicidal rating CASOB” value (CASOB (Sicklepod) [5]; rate 0.0156 kg/ha) was 0.0. For the same compound, the “Preemergence herbicidal rating CASOB” value (CASOB (Sicklepod) [5]; rate 0.0313 kg/ha) was 0.0, the “Preemergence herbicidal rating CASOB” value (CASOB (Sicklepod) [5]; rate 0.0625 kg/ha) was 1.0 and the “Preemergence herbicidal rating CASOB” value (CASOB (Sicklepod) [5]; rate 0.1250 kg/ha) was 1.0. For the same compound, the “Preemergence herbicidal rating CASOB” value (CASOB (Sicklepod) [5]; rate 0.2500 kg/ha) was 1.0, the “Preemergence herbicidal rating TRZAWR” value ([6]; rate 0.0156 kg/ha) was 0.0 and the “Preemergence herbicidal rating TRZAWR” value ([6]; rate 0.0625 kg/ha) was 1.0. For the same compound, the “Preemergence herbicidal rating TRZAWR” value ([6]; rate 0.1250 kg/ha) was 1.0, the “Preemergence herbicidal rating TRZAWR” value ([6]; rate 0.2500 kg/ha) was 2.0 and the “Postemergence herbicidal rating CASOB” value (CASOB (Sicklepod) [7]; Rate 0.0158 kg/ha) was 1.0. For the same compound, the “Postemergence herbicidal rating CASOB” value (CASOB (Sicklepod) [7]; Rate 0.0315 kg/ha) was 2.0, the “Postemergence herbicidal rating CASOB” value (CASOB (Sicklepod) [7]; Rate 0.0630 kg/ha) was 6.0 and the “Postemergence herbicidal rating AMBEL” value (AMBEL (Ragweed, Common); Rate 0.0158 kg/ha) was 9.0. For the same compound, the “Postemergence herbicidal rating AMBEL” value (AMBEL (Ragweed, Common); Rate 0.0315 kg/ha) was 7.0, the “Postemergence herbicidal rating AMBEL” value (AMBEL (Ragweed, Common); Rate 0.0630 kg/ha) was 9.0 and the “Preemergence herbicidal rating ECHCG” value (ECHCG (Barnyardgrass); rate 0.0156 kg/ha) was 0.0. The “Preemergence herbicidal rating ECHCG” value (ECHCG (Barnyardgrass); rate 0.0313 kg/ha) was 0.0, the “Preemergence herbicidal rating ECHCG” value (ECHCG (Barnyardgrass); rate 0.0625 kg/ha) was 1.0 and the “Preemergence herbicidal rating ECHCG” value (ECHCG (Barnyardgrass); rate 0.1250 kg/ha) was 3.0. The “Preemergence herbicidal rating ECHCG” value (ECHCG (Barnyardgrass); rate 0.2500 kg/ha) was 7.0.

Source: patent publication US20020137929A1, “1 - (3-heterocyclylphenyl) isothiourea, -isourea, -guanidine and -amidine herbicidal agents” (Intellectual Property Department, BASF Aktiengesellschaft, priority 1998, published 2002)
